One experiment addresses rat M1 (Rattus norvegicus (Rat), UniProt P08482). Description: M1 PAM Assay (FLIPR intracellular calcium), rat M1. In kind it is cell-based. Conditions: positive allosteric modulation in presence of EC20 of acetylcholine; second value of cell. As to the method:
[The procedure below names another species; the source lists this species under the same test.] (§1) The assay study the effect of several concentrations of test compounds on basal or acetylcholine-stimulated Ca^2+ levels using FLIPR.
(§2) CHO human M1 are plated the day before the experiments at 2×10^5 cells/ml in PDL BioCoat 96 well black/clear plate (Becton 35 4640). The cells are grown at 37° C. and 5% CO2 in the following medium: F12 Nut Mix (Gibco 21765), 10% FCS heat inactivated (GIBCO 16000-044), 1% Pen Strep (Gibco, 15140) and 200 μg/ml Geneticin (Gibco 11811). On the day of the experiment, the medium was removed and replaced by 100 μl of dye loading buffer containing Hanks Balanced Salt solution (HBSS, 14065-049, Gibco) with 20 mM HEPES (Gibco 15630-056), 2 mM Probenicid (Sigma P8761), […] (Molecular Probes F-14202), 10% Pluronic acid Molecular Probes P-3000) pH=7.4 and incubated at 37° C. After 60 minutes extracellular dye was removed and the cells were washed five times with FLIPR buffer containing HBSS (Gibco 14065-049) with 20 mM HEPES (Gibco, 15630-056), 2 mM Probenicid (Sigma P8761) pre-warmed at 37° C. using and Ebml cell washer leaving 100 μl of FLIPR buffer in each well. The cell plate and the diluted compounds (1% DMSO final concentration) are placed on the platform of the FLIPR and the door closed. A signal test to check background fluorescence and basal fluorescence signal is performed. Laser intensity is adjusted if necessary. Two minutes preincubation with the diluted test compounds is provide to determine any agonist activity on the M1 receptor by comparison to 30 nM Acetylcholine control. In order to determine any modulator activity the diluted compounds were added to cells and after two minutes preincubation, the EC20 of acetylcholine is added followed by another two minutes preincubation before the measurement of intracellular Ca^2+ with a FLIPR (Molecular Devices).
In general terms: A change in cytosolic calcium serves as a functional read-out for many receptors and channels.

In a further experiment the target is hM1 (Homo sapiens (Human), UniProt P11229). Description: M1 PAM Assay (FLIPR intracellular calcium, CHO human M1 cells). As to conditions: positive allosteric modulation in presence of EC20 of acetylcholine, first value of cell. In kind it is cell-based. As to the method:
as §1, §2

The text below walks through data of patent US9708302B2, “Flouro-naphthyl derivatives” (Hoffmann-La Roche Inc., priority 2014, dated 2017).

Molecules are shown by their SMILES. pEC50: −log10 of the molar value.

Sequence of hM1 (P11229 whole entry): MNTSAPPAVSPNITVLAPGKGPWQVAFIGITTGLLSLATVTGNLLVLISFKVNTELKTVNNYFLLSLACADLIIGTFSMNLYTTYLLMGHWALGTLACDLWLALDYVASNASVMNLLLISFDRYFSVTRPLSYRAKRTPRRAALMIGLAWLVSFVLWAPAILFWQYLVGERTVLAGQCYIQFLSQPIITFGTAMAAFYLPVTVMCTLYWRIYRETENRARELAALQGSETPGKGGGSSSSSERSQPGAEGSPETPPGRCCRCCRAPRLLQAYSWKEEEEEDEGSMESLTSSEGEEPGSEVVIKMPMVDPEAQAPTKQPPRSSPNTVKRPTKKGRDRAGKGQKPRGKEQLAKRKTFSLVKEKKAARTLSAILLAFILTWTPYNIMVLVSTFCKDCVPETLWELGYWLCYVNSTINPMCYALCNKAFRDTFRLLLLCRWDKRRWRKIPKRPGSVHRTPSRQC
Sequence of rat M1 (P08482 whole entry): as the sequence (P11229 whole entry) above, with A5V, T254S, P309S, R320K, A337G, I413V counted along it

In the case of `O=C(N[C@H]1CCCC[C@@H]1O)c1cc(Cc2ccc(Cl)nc2)c2ccccc2c1F` (racemic) [Example 1, 4-((6-Chloropyridin-3-yl)methyl)-1-fluoro-N-((1SR,2SR)-2-hydroxycyclohexyl)-2-naphthamide], the pEC50 (in general, the negative decadic logarithm of the EC50, by convention in mol/L) was 6.86 on rat M1 and 6.80 at hM1.
For `O=C(N[C@H]1CCOC[C@@H]1O)c1cc(Cc2ccc(Cl)nc2)c2ccccc2c1F` (racemic) [Example 2, 4-((6-chloropyridin-3-yl)methyl)-1-fluoro-N-((3RS,4SR)-3-hydroxytetrahydro-2H-pyran-4-yl)-2-naphthamide] the same measures were 6.93 and 7.28.
On to `C[C@]1(O)CCCC[C@@H]1NC(=O)c1cc(Cc2ccc(Cl)nc2)c2ccccc2c1F` (racemic) [Example 7, 4-((6-chloropyridin-3-yl)methyl)-1-fluoro-N-((1SR,2SR)-2-hydroxy-2-methylcyclohexyl)-2-naphthamide], for which, on hM1, the pEC50 is 6.25.
On the same count and under the same terms, with `C[C@@]1(O)CCCC[C@@H]1NC(=O)c1cc(Cc2ccc(Cl)nc2)c2ccccc2c1F` (racemic) [Example 8, 4-((6-chloropyridin-3-yl)methyl)-1-fluoro-N-((1SR,2RS)-2-hydroxy-2-methylcyclohexyl)-2-naphthamide] the figure was 6.28; with `O=C(N[C@H]1CCCC[C@H]1O)c1cc(Cc2ccc(Cl)nc2)c2ccccc2c1F` (racemic) [Example 9, 4-((6-chloropyridin-3-yl)methyl)-1-fluoro-N-((1SR,2RS)-2-hydroxycyclohexyl)-2-naphthamide], 6.27.
Take `Cc1ccc(Cc2cc(C(=O)N[C@H]3CCOC[C@@H]3O)c(F)c3ccccc23)cc1` (racemic) [Example 10, 1-Fluoro-N-((3RS,4SR)-3-hydroxytetrahydro-2H-pyran-4-yl)-4-(4-methylbenzyl)-2-naphthamide]: the pEC50 at rat M1 was 6.66; at hM1 it was 6.81.
For `O=C(N[C@H]1CCOC[C@@H]1O)c1cc(Cc2ccccc2)c2ccccc2c1F` (racemic) [Example 11, 4-benzyl-1-fluoro-N-((3RS,4SR)-3-hydroxytetrahydro-2H-pyran-4-yl)-2-naphthamide] the same measures were 6.45 and 6.71.
In the case of `O=C(N[C@H]1CCOC[C@@H]1O)c1cc(Cc2ccc(Cl)cc2)c2ccccc2c1F` (racemic) [Example 12, 4-(4-chlorobenzyl)-1-fluoro-N-((3RS,4SR)-3-hydroxytetrahydro-2H-pyran-4-yl)-2-naphthamide], the negative logarithm of the EC50 (pEC50) on rat M1 is 6.56; on hM1, 6.82.
For `N#Cc1ccc(Cc2cc(C(=O)N[C@H]3CCOC[C@@H]3O)c(F)c3ccccc23)cc1` (racemic) [Example 13, 4-(4-cyanobenzyl)-1-fluoro-N-((3RS,4SR)-3-hydroxytetrahydro-2H-pyran-4-yl)-2-naphthamide], the pEC50 is 7.15 at rat M1 and 7.17 at hM1.
For `Cn1cc(-c2ccc(Cc3cc(C(=O)N[C@H]4CCOC[C@@H]4O)c(F)c4ccccc34)c(F)c2)cn1` (racemic) [Example 14, 1-fluoro-4-(2-fluoro-4-(1-methyl-1H-pyrazol-4-yl)benzyl)-N-((3RS,4SR)-3-hydroxytetrahydro-2H-pyran-4-yl)-2-naphthamide] the same measures were 7.85 and 7.85.
Consider `O=C(N[C@H]1CCOC[C@@H]1O)c1cc(Cc2ccc(OC(F)(F)F)cc2)c2ccccc2c1F` (racemic) [Example 15, 1-fluoro-N-((3RS,4SR)-3-hydroxytetrahydro-2H-pyran-4-yl)-4-(4-(trifluoromethoxy)benzyl)-2-naphthamide], for which the pEC50 on hM1 is 6.27.
For the molecule `Cn1cc(-c2ccc(Cc3cc(C(=O)N[C@H]4CCOC[C@@H]4O)c(F)c4ccccc34)cc2)cn1` (racemic) [Example 16, 1-fluoro-N-((3RS,4SR)-3-hydroxytetrahydro-2H-pyran-4-yl)-4-(4-(1-methyl-1H-pyrazol-4-yl)benzyl)-2-naphthamide], the values for the pEC50 at rat M1 and on hM1 were 7.70 and 7.96, respectively.
As for `Cn1cc(-c2ccc(Cc3cc(C(=O)N[C@H]4CCCC[C@@H]4O)c(F)c4ccccc34)cn2)cn1` (racemic) [Example 17, 1-Fluoro-N-((1S,2S)-2-hydroxycyclohexyl)-4-((6-(1-methyl-1H-pyrazol-4-yl)pyridin-3-yl)methyl)-2-naphthamide], the pEC50 was 7.85 on rat M1 and 8.00 at hM1.
For `Cn1cc(-c2ccc(Cc3cc(C(=O)N[C@H]4CCOC[C@@H]4O)c(F)c4ccccc34)cn2)cn1` (racemic) [Example 18, 1-fluoro-N-((3RS,4SR)-3-hydroxytetrahydro-2H-pyran-4-yl)-4-((6-(1-methyl-1H-pyrazol-4-yl)pyridin-3-yl)methyl)-2-naphthamide] the same measures were 8.22 and 8.52.
For `Cn1cc(-c2ccc(Cc3cc(C(=O)N[C@H]4CCCC[C@@]4(C)O)c(F)c4ccccc34)cn2)cn1` (racemic) [Example 22, 1-fluoro-N-((1SR,2RS)-2-hydroxy-2-methylcyclohexyl)-4-((6-(1-methyl-1H-pyrazol-4-yl)pyridin-3-yl)methyl)-2-naphthamide] the same measures were 7.39 and 7.70.
For `Cc1ccc(Cc2cc(C(=O)N[C@H]3CCCC[C@@H]3O)c(F)c3ccccc23)cn1` (racemic) [Example 23, 1-Fluoro-N-((1SR,2SR)-2-hydroxycyclohexyl)-4-((6-methylpyridin-3-yl)methyl)-2-naphthamide] the same measures were 6.31 and 6.67.
On to `O=C(N[C@@H]1CCOC[C@H]1O)c1cc(Cc2ccc(Cl)nc2)c2ccccc2c1F` (stereo in doubt) [Example 25, 4-[(6-chloropyridin-3-yl)methyl]-1-fluoro-N-[(3S,4R)-3-hydroxyoxan-4-yl]naphthalene-2-carboxamide], for which the pEC50 at rat M1 is 7.28; on hM1 it was 7.57.
For `O=C(N[C@H]1CCCC[C@@H]1O)c1cc(Cc2ccc(Cl)nc2)c2ccccc2c1F` [Example 3, 4-((6-chloropydridin-3-yl)methyl)-1-fluoro-N-((1S,2S)-2-hydroxycyclohexyl)-2-naphthamide] the same measures were 7.00 and 7.08.
In the case of `O=C(N[C@H]1COCC[C@@H]1O)c1cc(Cc2ccc(Cl)nc2)c2ccccc2c1F` [Example 4, 4-((6-Chloropyridin-3-yl)methyl)-1-fluoro-N-((3S,4S)-4-hydroxytetrahydro-2H-pyran-3-yl)-2-naphthamide], the pEC50 at hM1 is 6.37.
`O=C(N[C@H]1CCC[C@@H]1O)c1cc(Cc2ccc(Cl)nc2)c2ccccc2c1F` [Example 5, 4-((6-chloropyridin-3-yl)methyl)-1-fluoro-N-((1S,2S)-2-hydroxycyclopentyl)-2-naphthamide]: the pEC50 at rat M1 was 6.01; on hM1, 6.44.
As to `O=C(N[C@H]1CCC[C@H]1O)c1cc(Cc2ccc(Cl)nc2)c2ccccc2c1F` [Example 6, 4-((6-chloropydridin-3-yl)methyl)-1-fluoro-N-((1S,2R)-2-hydroxycyclopentyl)-2-naphthamide], the negative logarithm of the EC50 (pEC50) at hM1 is 6.24.
Regarding `Cn1cc(-c2ccc(Cc3cc(C(=O)N[C@@H]4CCOC[C@H]4O)c(F)c4ccccc34)cn2)cn1` [Example 19, 1-fluoro-N-[(3S,4R)-3-hydroxytetrahydropyran-4-yl]-4-[[6-(1-methylpyrazol-4-yl)-3-pyridyl]methyl]naphthalene-2-carboxamide], the pEC50 at rat M1 was 7.01; at hM1 it was 7.19.
For `Cn1cc(-c2ccc(Cc3cc(C(=O)N[C@H]4CCOC[C@@H]4O)c(F)c4ccccc34)cn2)cn1` [Example 20, 1-fluoro-N-[(3R,4S)-3-hydroxytetrahydropyran-4-yl]-4-[[6-(1-methylpyrazol-4-yl)-3-pyridyl]methyl]naphthalene-2-carboxamide] the same measures were 8.70 and 8.70.
For `Cn1cc(-c2ccc(Cc3cc(C(=O)N[C@H]4COCC[C@@H]4O)c(F)c4ccccc34)cn2)cn1` [Example 21, 1-fluoro-N-((3S,4S)-4-hydroxytetrahydro-2H-pyran-3-yl)-4-((6-(1-methyl-1H-pyrazol-4-yl)pyridin-3-yl)methyl)-2-naphthamide] the same measures were 7.32 and 7.48.
For `O=C(N[C@H]1CCCC[C@@H]1O)c1cc(Cc2ccc(C3CC3)nc2)c2ccccc2c1F` [Example 24, 4-((6-Cyclopropylpyridin-3-yl)methyl)-1-fluoro-N-((1S,2S)-2-hydroxycyclohexyl)-2-naphthamide] the same measures were 6.46 and 6.64.
`N#CC1(c2ccccn2)CCN(Cc2cc(C(=O)N[C@H]3CCCC[C@@H]3O)c(F)c3ccccc23)CC1` [Example 26, 4-((4-Cyano-4-(pyridin-2-yl)piperidin-1-yl)methyl)-1-fluoro-N-((1S,2S)-2-hydroxycyclohexyl)-2-naphthamide]: the pEC50 at rat M1 is 6.46; at hM1 it was 6.59.
